Values after ≈ are worked out from the molar mass of the structure shown.
Assays:
Streptococcus pneumoniae [1] = test: Ratio of MBC to MIC for methicillin-resistant Streptococcus pneumoniae ATCC 700677 assessed as inhibition of bacterial growth measured after 18 to 20 hrs by CLSI protocol based broth microdilution method; format: functional; settings: time 18-20 hrs
Staphylococcus aureus [2] = test: Antibacterial activity against methicillin-resistant Staphylococcus aureus USA400 NRS123 infected in mouse J774 cells assessed as reduction in intracellular bacterial burden at 4 x MIC measured after 24 hrs relative to control; format: functional
Staphylococcus aureus [3] = test: Antibacterial activity against methicillin-resistant Staphylococcus aureus USA400 NRS123 infected in mouse J774 cells assessed as log reduction in intracellular bacterial burden at 4 x MIC measured after 24 hrs; format: functional
[4] = Intrinsic clearance in human liver microsomes at 0.1 uM in absence of NADPH measured upto 60 mins by LC/MS/MS analysis; format: ADME, Microsome; settings: read-out: CLH
[5] = Selectivity index, ratio of maximum non-toxic concentration for human Caco-2 cells to MIC for methicillin-resistant Staphylococcus aureus USA700 NRS386; format: toxicity
Staphylococcus aureus [6] = test: Bactericidal activity against methicillin-resistant Staphylococcus aureus USA400 NRS123 assessed as post-antibiotic effect at 5 times MIC incubated for 2 hrs followed by compound wash-out by viable plate count method; format: functional
physchem = settings: phosphate-buffered saline, pH 7.4
Staphylococcus aureus [7] = test: Antibacterial activity against methicillin-resistant Staphylococcus aureus USA400 NRS123 infected in mouse J774 cells assessed as log reduction in intracellular bacterial burden at 2 x MIC measured after 24 hrs; format: functional
[8] = tested on: Staphylococcus epidermidis; test: Antibacterial activity against methicillin-resistant Staphylococcus epidermidis NRS101 assessed as inhibition of bacterial growth measured after 18 to 20 hrs by CLSI protocol based broth microdilution method; format: functional; settings: time 18-20 hrs
[9] = Half life in human liver microsomes at 0.1 uM in presence of NADPH by LC/MS/MS analysis
[10] = Selectivity index, ratio of maximum non-toxic concentration for human Caco-2 cells to MIC for methicillin-resistant Staphylococcus aureus NRS119; format: toxicity
Staphylococcus aureus [11] = test: Antibacterial activity against methicillin-resistant Staphylococcus aureus USA400 NRS123 infected in mouse J774 cells assessed as reduction in intracellular bacterial burden at 2 x MIC measured after 24 hrs relative to control; format: functional
J774 = test: Cytotoxicity against mouse J774 cells assessed as cell viability at 32 ug/ml incubated for 2 hrs by MTS assay; format: cell-based; settings: j774, 2 h, dose 32 µg/ml
Listeria monocytogenes = test: Antibacterial activity against Listeria monocytogenes ATCC 19111 assessed as inhibition of bacterial growth measured after 18 to 20 hrs by CLSI protocol based broth microdilution method; format: functional; settings: time 18-20 hrs
[12] = Cytotoxicity against human Caco-2 cells assessed as cell viability at 64 ug/ml incubated for 2 hrs by MTS assay relative to control; format: cell-based; settings: at 64 µg/mL, read-out: Activity
Staphylococcus aureus [13] = test: Bactericidal activity against methicillin-resistant Staphylococcus aureus USA400 NRS123 assessed as log reduction in viable bacteria count at 5 times MIC incubated for 2 hrs in soy broth followed by incubation for 18 to 20 hrs on agar plate by time kill assay; format: functional; settings: time 20-22 hrs
Staphylococcus aureus [14] = test: Ratio of MIC for methicillin-resistant Staphylococcus aureus USA400 NRS123 measured after 13th passage to MIC for methicillin-resistant Staphylococcus aureus USA400 NRS123 measured after 18 to 20 hrs by broth microdilution assay; format: functional
Staphylococcus aureus [15] = test: microbe, parasite or virus in culture; settings: NRS119
Staphylococcus aureus [16] = test: microbe, parasite or virus in culture; settings: USA500 NRS385
Staphylococcus aureus [17] = test: Ratio of MBC to MIC against methicillin-sensitive Staphylococcus aureus NRS107 assessed as inhibition of bacterial growth measured after 18 to 20 hrs by CLSI protocol based broth microdilution method; format: functional; settings: time 18-20 hrs
Staphylococcus aureus [18] = test: Bactericidal activity against methicillin-resistant Staphylococcus aureus USA400 NRS123 assessed as eradication of bacterial count at 5 times MIC incubated for 8 hrs in soy broth followed by incubation for 18 to 20 hrs on agar plate by time kill assay; format: functional; settings: time 26-28 hrs
Enterococcus faecalis = test: Ratio of MBC to MIC for vancomycin-resistant Enterococcus faecalis ATCC 51299 assessed as inhibition of bacterial growth measured after 18 to 20 hrs by CLSI protocol based broth microdilution method; format: functional; settings: time 18-20 hrs
[19] = Selectivity index, ratio of maximum non-toxic concentration for human Caco-2 cells to MIC for methicillin-resistant Staphylococcus aureus USA500 NRS385; format: toxicity
[20] = Half life in human liver microsomes at 0.1 uM in absence of NADPH by LC/MS/MS analysis; format: ADME, Microsome
Staphylococcus aureus [21] = test: microbe, parasite or virus in culture; settings: USA400 NRS123
Staphylococcus aureus [22] = test: microbe, parasite or virus in culture; settings: NRS107
Staphylococcus aureus [23] = test: Antibacterial activity against vancomycin-resistant Staphylococcus aureus 12 assessed as inhibition of bacterial growth measured after 18 to 20 hrs by CLSI protocol based broth microdilution method; format: functional; settings: time 18-20 hrs
[24] = Selectivity index, ratio of maximum non-toxic concentration for human Caco-2 cells to MIC for methicillin-resistant Staphylococcus aureus USA400 NRS123; format: toxicity
Staphylococcus aureus [25] = test: Ratio of MBC to MIC against methicillin-sensitive Staphylococcus aureus ATCC 6538 assessed as inhibition of bacterial growth measured after 18 to 20 hrs by CLSI broth microdilution method; format: functional; settings: time 18-20 hrs
Staphylococcus aureus [26] = test: microbe, parasite or virus in culture; settings: ATCC 6538
Escherichia coli = test: Antibacterial activity against Escherichia coli JW55031 harboring toIC efflux mutant assessed as inhibition of bacterial growth measured after 18 to 20 hrs by broth microdilution method; format: functional; settings: time 18-20 hrs
Enterococcus faecium = test: Ratio of MBC to MIC for vancomycin-resistant Enterococcus faecium ATCC 700221 assessed as inhibition of bacterial growth measured after 18 to 20 hrs by CLSI protocol based broth microdilution method; format: functional; settings: time 18-20 hrs
Staphylococcus aureus [27] = test: Antibacterial activity against methicillin-resistant Staphylococcus aureus USA300 NRS384 assessed as inhibition of bacterial growth measured after 18 to 20 hrs by broth microdilution method; format: functional; settings: time 18-20 hrs
Staphylococcus aureus [28] = test: Antibacterial activity against vancomycin-resistant Staphylococcus aureus 10 assessed as inhibition of bacterial growth measured after 18 to 20 hrs by CLSI protocol based broth microdilution method; format: functional; settings: time 18-20 hrs
Streptococcus pneumoniae [29] = test: Antibacterial activity against methicillin-resistant Streptococcus pneumoniae ATCC 700677 assessed as inhibition of bacterial growth measured after 18 to 20 hrs by CLSI protocol based broth microdilution method; format: functional; settings: time 18-20 hrs

C/C(=N\NC(=N)N)c1ccc(Nc2nc(-c3ccc(C)cc3)cs2)cc1
Ratio (Streptococcus pneumoniae [1]): 1 | inhibition (INH) (Staphylococcus aureus [2]): 99% | Activity (Staphylococcus aureus [3]): 2.49 log10CFU/ml | microsomal CLint at 0.1 µM [4]: 27.3 µL/min/mg | selectivity ratio [5]: 16 | PAE (Staphylococcus aureus [6]): 6 h | solubility kinetic at 2 h (physchem): 26.7 µM (≈ 9.73 µg/mL) | Activity (Staphylococcus aureus [7]): 1.19 log10CFU/ml | MBC [8]: 1 µg/mL (≈ 2.74 µM) | MIC [8]: 1 µg/mL (≈ 2.74 µM) | half-life at 0.1 µM [9]: 1.96 h | selectivity ratio [10]: 16 | inhibition (INH) (Staphylococcus aureus [11]): 93% | Activity (J774): Non-Toxic | MBC (Listeria monocytogenes): 2 µg/mL (≈ 5.49 µM) | MIC (Listeria monocytogenes): 1 µg/mL (≈ 2.74 µM) | viability at 2 h, 64 ug/ml [12]: 100% | Activity (Staphylococcus aureus [13]): 3 log10CFU/ml | Ratio (Staphylococcus aureus [14]): 1 | MBC (Staphylococcus aureus [15]): 4 µg/mL (≈ 11 µM) | MIC (Staphylococcus aureus [15]): 2 µg/mL (≈ 5.49 µM) | MBC (Staphylococcus aureus [16]): 2 µg/mL (≈ 5.49 µM) | MIC (Staphylococcus aureus [16]): 2 µg/mL (≈ 5.49 µM) | Ratio (Staphylococcus aureus [17]): 1 | Activity (Staphylococcus aureus [18]): 100% | Ratio (Enterococcus faecalis): 1 | selectivity ratio [19]: 16 | half-life at 0.1 µM [20]: 4.23 h | MBC (Staphylococcus aureus [21]): 2 µg/mL (≈ 5.49 µM) | MIC (Staphylococcus aureus [21]): 2 µg/mL (≈ 5.49 µM) | MBC (Staphylococcus aureus [22]): 2 µg/mL (≈ 5.49 µM) | MIC (Staphylococcus aureus [22]): 2 µg/mL (≈ 5.49 µM) | MBC (Staphylococcus aureus [23]): 2 µg/mL (≈ 5.49 µM) | MIC (Staphylococcus aureus [23]): 2 µg/mL (≈ 5.49 µM) | selectivity ratio [24]: 16 | Ratio (Staphylococcus aureus [25]): 1 | MBC (Staphylococcus aureus [26]): 4 µg/mL (≈ 11 µM) | MIC (Staphylococcus aureus [26]): 2 µg/mL (≈ 5.49 µM) | MIC (Escherichia coli): 4 µg/mL (≈ 11 µM) | Ratio (Enterococcus faecium): 1 | MIC (Staphylococcus aureus [27]): 2 µg/mL (≈ 5.49 µM) | MBC (Staphylococcus aureus [28]): 2 µg/mL (≈ 5.49 µM) | MIC (Staphylococcus aureus [28]): 2 µg/mL (≈ 5.49 µM) | MBC (Streptococcus pneumoniae [29]): 8 µg/mL (≈ 21.9 µM) | MIC (Streptococcus pneumoniae [29]): 2 µg/mL (≈ 5.49 µM)
